{"source": "ChEMBL document CHEMBL1201862", "about": "“PubChem BioAssay data set” (2004)", "test_in_all_cases": "NCI-60 cell line screen, 48 h", "key": {"[1]": {"system": "SNB-75"}, "[2]": {"system": "MDA-MB-435"}, "[3]": {"system": "K562"}, "[4]": {"system": "HOP-62"}, "[5]": {"system": "SK-MEL-5"}, "[6]": {"system": "NCI-H522"}, "[7]": {"system": "MDA-MB-231"}, "[8]": {"system": "CCRF-CEM"}, "[9]": {"system": "OVCAR-4"}, "[10]": {"system": "CAKI-1"}, "[11]": {"system": "UO-31"}, "[12]": {"system": "HCT-15"}, "[13]": {"system": "HOP-92"}, "[14]": {"system": "MOLT-4"}, "[15]": {"system": "NCI-H23"}, "[16]": {"system": "SK-MEL-28"}, "[17]": {"system": "NCI-H226"}, "[18]": {"system": "M14"}, "[19]": {"system": "SK-OV-3"}, "[20]": {"system": "MCF7"}, "[21]": {"system": "LOX IMVI"}, "[22]": {"system": "HCC 2998"}, "[23]": {"system": "IGROV-1"}, "[24]": {"system": "BT-549"}, "[25]": {"system": "KM12"}, "[26]": {"system": "U-251"}, "[27]": {"system": "MDA-N"}, "[28]": {"system": "UACC-62"}, "[29]": {"system": "786-0"}, "[30]": {"system": "TK-10"}, "[31]": {"system": "A498"}, "[32]": {"system": "PC-3"}, "[33]": {"system": "SNB-19"}, "[34]": {"system": "SF-268"}, "[35]": {"system": "SF-295"}, "[36]": {"system": "NCI-H460"}, "[37]": {"system": "OVCAR-3"}, "[38]": {"system": "OVCAR-8"}, "[39]": {"system": "EKVX"}, "[40]": {"system": "Malme-3M"}, "[41]": {"system": "NCI/ADR-RES"}, "[42]": {"system": "SF-539"}, "[43]": {"system": "ACHN"}, "[44]": {"system": "HL-60"}, "[45]": {"system": "UACC-257"}, "[46]": {"system": "HCT-116"}, "[47]": {"system": "SK-MEL-2"}, "[48]": {"system": "A549"}, "[49]": {"system": "SW-620"}, "[50]": {"system": "DU-145"}, "[51]": {"system": "Hs-578T"}, "[52]": {"system": "COLO 205"}, "[53]": {"system": "RPMI-8226"}, "[54]": {"system": "OVCAR-5"}, "[55]": {"system": "RXF 393"}, "[56]": {"system": "HT-29"}, "[57]": {"system": "SN12C"}, "[58]": {"system": "SR"}}, "note": "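How tested: cells in 96-well plates exposed to compound for 48 hours at five concentrations. At the GI50, growth is halved.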 The source made the active and inactive calls. No stated cut-off is given here; in the data, active = GI50 up to about 1.1 µM and inactive = higher.", "data": [{"smiles": "CC(=O)Oc1c(OC(C)C)cc(=O)n2ccsc12", "values": [{"measurement": "GI50", "setting": "[1]", "value": "> 100 µM (inactive)"}, {"measurement": "GI50", "setting": "[2]", "value": "17.3 µM (inactive)"}, {"measurement": "GI50", "setting": "[3]", "value": "42.8 µM (inactive)"}, {"measurement": "GI50", "setting": "[4]", "value": "> 100 µM (inactive)"}, {"measurement": "GI50", "setting": "[5]", "value": "62.8 µM (inactive)"}, {"measurement": "GI50", "setting": "[6]", "value": "42.2 µM (inactive)"}, {"measurement": "GI50", "setting": "[7]", "value": "> 100 µM (inactive)"}, {"measurement": "GI50", "setting": "[8]", "value": "16.1 µM (inactive)"}, {"measurement": "GI50", "setting": "[9]", "value": "> 100 µM (inactive)"}, {"measurement": "GI50", "setting": "[10]", "value": "> 100 µM (inactive)"}, {"measurement": "GI50", "setting": "[11]", "value": "> 100 µM (inactive)"}, {"measurement": "GI50", "setting": "[12]", "value": "> 100", "unit": "µM"}, {"measurement": "GI50", "setting": "[13]", "value": "> 100 µM (inactive)"}, {"measurement": "GI50", "setting": "[14]", "value": "43.9 µM (inactive)"}, {"measurement": "GI50", "setting": "[15]", "value": "> 100 µM (inactive)"}, {"measurement": "GI50", "setting": "[16]", "value": "> 100 µM (inactive)"}, {"measurement": "GI50", "setting": "[17]", "value": "> 100 µM (inactive)"}, {"measurement": "GI50", "setting": "[18]", "value": "> 100 µM (inactive)"}, {"measurement": "GI50", "setting": "[19]", "value": "> 100 µM (inactive)"}, {"measurement": "GI50", "setting": "[20]", "value": "52.6 µM (inactive)"}, {"measurement": "GI50", "setting": "[21]", "value": "> 100 µM (inactive)"}, {"measurement": "GI50", "setting": "[22]", "value": "> 100 µM (inactive)"}, {"measurement": "GI50", "setting": "[23]", "value": "92.7 µM (inactive)"}, {"measurement": "GI50", "setting": "[24]", "value": "> 100 µM (inactive)"}, {"measurement": "GI50", "setting": "[25]", "value": "> 100 µM (inactive)"}, {"measurement": "GI50", "setting": "[26]", "value": "> 100 µM (inactive)"}, {"measurement": "GI50", "setting": "[27]", "value": "> 100 µM (inactive)"}, {"measurement": "GI50", "setting": "[28]", "value": "> 100 µM (inactive)"}, {"measurement": "GI50", "setting": "[29]", "value": "> 100 µM (inactive)"}, {"measurement": "GI50", "setting": "[30]", "value": "> 100 µM (inactive)"}, {"measurement": "GI50", "setting": "[31]", "value": "> 100 µM (inactive)"}, {"measurement": "GI50", "setting": "[32]", "value": "> 100 µM (inactive)"}, {"measurement": "GI50", "setting": "[33]", "value": "> 100 µM (inactive)"}, {"measurement": "GI50", "setting": "[34]", "value": "> 100 µM (inactive)"}, {"measurement": "GI50", "setting": "[35]", "value": "> 100 µM (inactive)"}, {"measurement": "GI50", "setting": "[36]", "value": "> 100 µM (inactive)"}, {"measurement": "GI50", "setting": "[37]", "value": "78.2 µM (inactive)"}, {"measurement": "GI50", "setting": "[38]", "value": "> 100 µM (inactive)"}, {"measurement": "GI50", "setting": "[39]", "value": "> 100 µM (inactive)"}, {"measurement": "GI50", "setting": "[40]", "value": "> 100 µM (inactive)"}, {"measurement": "GI50", "setting": "[41]", "value": "> 100 µM (inactive)"}, {"measurement": "GI50", "setting": "[42]", "value": "> 100 µM (inactive)"}, {"measurement": "GI50", "setting": "[43]", "value": "> 100 µM (inactive)"}, {"measurement": "GI50", "setting": "[44]", "value": "18.5 µM (inactive)"}, {"measurement": "GI50", "setting": "[45]", "value": "> 100 µM (inactive)"}, {"measurement": "GI50", "setting": "[46]", "value": "> 100 µM (inactive)"}, {"measurement": "GI50", "setting": "[47]", "value": "> 100 µM (inactive)"}, {"measurement": "GI50", "setting": "[48]", "value": "> 100 µM (inactive)"}, {"measurement": "GI50", "setting": "[49]", "value": "82 µM (inactive)"}, {"measurement": "GI50", "setting": "[50]", "value": "> 100 µM (inactive)"}, {"measurement": "GI50", "setting": "[51]", "value": "> 100 µM (inactive)"}, {"measurement": "GI50", "setting": "[52]", "value": "30.1 µM (inactive)"}, {"measurement": "GI50", "setting": "[53]", "value": "29.4 µM (inactive)"}, {"measurement": "GI50", "setting": "[54]", "value": "> 100 µM (inactive)"}, {"measurement": "GI50", "setting": "[55]", "value": "> 100 µM (inactive)"}, {"measurement": "GI50", "setting": "[56]", "value": "> 100 µM (inactive)"}, {"measurement": "GI50", "setting": "[57]", "value": "> 100 µM (inactive)"}]}, {"smiles": "CC(C)(C)c1cc(CC2C(=O)c3ccccc3C2=O)cc(C(C)(C)C)c1O", "values": [{"measurement": "GI50", "setting": "[2]", "value": "3.78 µM (inactive)"}, {"measurement": "GI50", "setting": "[3]", "value": "3.13 µM (inactive)"}, {"measurement": "GI50", "setting": "[4]", "value": "2.54 µM (inactive)"}, {"measurement": "GI50", "setting": "[5]", "value": "2.7 µM (inactive)"}, {"measurement": "GI50", "setting": "[6]", "value": "2.62 µM (inactive)"}, {"measurement": "GI50", "setting": "[7]", "value": "2.59 µM (inactive)"}, {"measurement": "GI50", "setting": "[8]", "value": "4.04 µM (inactive)"}, {"measurement": "GI50", "setting": "[9]", "value": "4.08 µM (inactive)"}, {"measurement": "GI50", "setting": "[10]", "value": "3.22 µM (inactive)"}, {"measurement": "GI50", "setting": "[11]", "value": "2.95 µM (inactive)"}, {"measurement": "GI50", "setting": "[12]", "value": 2.9, "unit": "µM"}, {"measurement": "GI50", "setting": "[13]", "value": "0.272 µM (active)"}, {"measurement": "GI50", "setting": "[14]", "value": "2.5 µM (inactive)"}, {"measurement": "GI50", "setting": "[15]", "value": "4.22 µM (inactive)"}, {"measurement": "GI50", "setting": "[18]", "value": "2.69 µM (inactive)"}, {"measurement": "GI50", "setting": "[19]", "value": "2.44 µM (inactive)"}, {"measurement": "GI50", "setting": "[20]", "value": "3.66 µM (inactive)"}, {"measurement": "GI50", "setting": "[21]", "value": "3.81 µM (inactive)"}, {"measurement": "GI50", "setting": "[23]", "value": "5.45 µM (inactive)"}, {"measurement": "GI50", "setting": "[24]", "value": "3.45 µM (inactive)"}, {"measurement": "GI50", "setting": "[25]", "value": "3.51 µM (inactive)"}, {"measurement": "GI50", "setting": "[26]", "value": "3.87 µM (inactive)"}, {"measurement": "GI50", "setting": "[27]", "value": "7.5 µM (inactive)"}, {"measurement": "GI50", "setting": "[28]", "value": "3.58 µM (inactive)"}, {"measurement": "GI50", "setting": "[29]", "value": "3.9 µM (inactive)"}, {"measurement": "GI50", "setting": "[30]", "value": "5.57 µM (inactive)"}, {"measurement": "GI50", "setting": "[31]", "value": "13.3 µM (inactive)"}, {"measurement": "GI50", "setting": "[32]", "value": "2.7 µM (inactive)"}, {"measurement": "GI50", "setting": "[33]", "value": "2.94 µM (inactive)"}, {"measurement": "GI50", "setting": "[34]", "value": "3.44 µM (inactive)"}, {"measurement": "GI50", "setting": "[35]", "value": "3.24 µM (inactive)"}, {"measurement": "GI50", "setting": "[36]", "value": "4.48 µM (inactive)"}, {"measurement": "GI50", "setting": "[37]", "value": "2.89 µM (inactive)"}, {"measurement": "GI50", "setting": "[38]", "value": "3.05 µM (inactive)"}, {"measurement": "GI50", "setting": "[39]", "value": "5.37 µM (inactive)"}, {"measurement": "GI50", "setting": "[41]", "value": "2.69 µM (inactive)"}, {"measurement": "GI50", "setting": "[42]", "value": "3.65 µM (inactive)"}, {"measurement": "GI50", "setting": "[43]", "value": "9.51 µM (inactive)"}, {"measurement": "GI50", "setting": "[44]", "value": "2.54 µM (inactive)"}, {"measurement": "GI50", "setting": "[45]", "value": "3.21 µM (inactive)"}, {"measurement": "GI50", "setting": "[46]", "value": "2.24 µM (inactive)"}, {"measurement": "GI50", "setting": "[47]", "value": "3.2 µM (inactive)"}, {"measurement": "GI50", "setting": "[48]", "value": "8.59 µM (inactive)"}, {"measurement": "GI50", "setting": "[49]", "value": "2.51 µM (inactive)"}, {"measurement": "GI50", "setting": "[58]", "value": "2.88 µM (inactive)"}, {"measurement": "GI50", "setting": "[50]", "value": "2.45 µM (inactive)"}, {"measurement": "GI50", "setting": "[51]", "value": "3.94 µM (inactive)"}, {"measurement": "GI50", "setting": "[52]", "value": "3.6 µM (inactive)"}, {"measurement": "GI50", "setting": "[53]", "value": "0.764 µM (active)"}, {"measurement": "GI50", "setting": "[54]", "value": "11.7 µM (inactive)"}, {"measurement": "GI50", "setting": "[56]", "value": "3.13 µM (inactive)"}, {"measurement": "GI50", "setting": "[57]", "value": "4.11 µM (inactive)"}]}]}
